SMILES strings stand for the structures. pIC50, pKi: −log10 of the molar value.

The assay has as its target T1, Tyrosinase (Agaricus bisporus, UniProt O42713).
T1 sequence (O42713 whole entry): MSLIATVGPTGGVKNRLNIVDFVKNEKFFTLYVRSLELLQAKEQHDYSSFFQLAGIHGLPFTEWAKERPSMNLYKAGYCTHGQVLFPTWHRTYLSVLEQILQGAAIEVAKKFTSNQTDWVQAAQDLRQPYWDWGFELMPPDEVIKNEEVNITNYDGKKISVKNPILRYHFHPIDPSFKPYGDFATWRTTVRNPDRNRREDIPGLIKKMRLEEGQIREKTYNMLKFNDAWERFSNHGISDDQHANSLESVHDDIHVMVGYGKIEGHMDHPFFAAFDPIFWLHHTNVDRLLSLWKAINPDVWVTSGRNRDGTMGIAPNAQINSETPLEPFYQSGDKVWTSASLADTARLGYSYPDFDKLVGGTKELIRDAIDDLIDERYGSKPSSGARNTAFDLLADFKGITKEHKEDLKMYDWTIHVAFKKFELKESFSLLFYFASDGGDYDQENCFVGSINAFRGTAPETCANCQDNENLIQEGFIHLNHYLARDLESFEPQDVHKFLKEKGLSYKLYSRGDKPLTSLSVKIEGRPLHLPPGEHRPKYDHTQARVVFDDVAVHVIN
Description: Inhibition of mushroom tyrosinase
Take `O=C(NCc1ccc(O)cc1)c1ccc(O)cc1O`: the pIC50 (commonly the IC50 on a negative log10 scale, so that one unit is a factor of ten) was 2.74.

As to `O=C(NCc1ccc(O)cc1O)c1ccc(O)cc1O`, the pIC50 was 4.54. Same read-out and setting: the value for `O=C(NCc1cc(O)c(O)c(O)c1)c1ccc(O)cc1O` was 3.26; that for `O=C(NCc1cc(O)c(O)c(O)c1)c1cc(O)cc(O)c1` was 3.15; that for `O=C(NCc1ccc(O)cc1)c1cc(O)c(O)c(O)c1` was 2.93. Compound `O=C(NCc1ccc(O)cc1O)c1ccc(O)c(O)c1` showed a pIC50 of 4.96. On to `O=C(NCc1cc(O)c(O)c(O)c1)c1cc(O)c(O)c(O)c1`, for which the negative logarithm of the IC50 (pIC50) is 3.26. Consider `O=C(NCc1ccc(O)cc1O)c1cc(O)c(O)c(O)c1`, for which the pIC50 was 4.77. Still for that read-out and setting: the value for `O=C(NCc1ccccc1)c1ccc(O)cc1O` was 2.78; that for `O=C(NCc1ccccc1)c1ccccc1` was 2.70; that for `O=C(NCc1ccc(O)cc1)c1ccc(O)c(O)c1` was less than 2.70.

Consider `O=C(NCc1cc(O)c(O)c(O)c1)c1ccc(O)c(O)c1`, for which the pIC50 is 3.55.

Turning to `O=C(NCc1ccccc1)c1cc(O)c(O)c(O)c1`, the pIC50 is 3.11. In the case of `O=C(NCc1ccccc1)c1ccc(O)c(O)c1`, the pIC50 was less than 2.70. Still for that read-out and setting: as for `O=C(NCc1ccccc1)c1cc(O)cc(O)c1`, the figure is 3.15.

Take `O=C(NCc1ccc(O)cc1O)c1cc(O)cc(O)c1`: the pIC50 is 5.66 and the pKi (commonly the negative decadic logarithm of the Ki, by convention in mol/L) was 5.89.

On to `O=C(NCc1ccc(O)cc1)c1cc(O)cc(O)c1`, for which the pIC50 is 3.15.

(Values after ChEMBL document CHEMBL1147702, “N-Benzylbenzamides: a new class of potent tyrosinase inhibitors” (Bioorg Med Chem Lett, 2006).)
